Results as given in PMC9220351, “Evaluation of a Conformationally Constrained Indole Carboxamide as a Potential Efflux Pump Inhibitor in Pseudomonas aeruginosa” (Antibiotics, 2022).

Experiments:
Assay type in all cases: cell-based, Pseudomonas aeruginosa
[1] = system: P. aeruginosa mutants EPIR1S, EPIR9S, EPIR20L, EPIR43; assay: MIC of antimicrobials in TXA09155-resistant mutants; conditions: Pseudomonas aeruginosa
Description: (§1) All resistant colonies were verified by determining the MIC to TXA09155. […] This two-component system regulates the expression of more than 100 genes in P. aeruginosa, including genes that code for efflux components (mexX), and plays a role in the resistance to cationic antimicrobial peptides and aminoglycoside antibiotics.
(§2) MIC assays were performed as described previously.

[2] = system: 34 MDR P. aeruginosa clinical isolates (CDC & FDA AR Isolate Bank); assay: microbe, parasite or virus in culture; conditions: for Levofloxacin MIC fold difference: + labelled EPI […] (TXA09155 head: 50 µg/mL); for Levofloxacin MIC: alone or + labelled EPI […] (TXA09155 head: 50 µg/mL)
Source text: P. aeruginosa ATCC 27853 was obtained from the American Type Culture Collection (ATCC; Manassas, VA, USA). P. aeruginosa multidrug-resistant isolates were obtained from the CDC and FDA Antibiotic Resistance Isolate Bank (Atlanta, GA, USA). P. aeruginosa DA7232 (gyrA-T83I, parC-S80L) was a kind gift from Prof. Dan I. Andersson, Uppsala University, Uppsala, Sweden, and has been characterized elsewhere. P. aeruginosa strains K767 (WT), K1455 (mexAB-oprM overexpressed), K2415 (mexXY-oprM overexpressed), and K3698 (oprM∆) were obtained from Prof. Keith Poole, Queen’s University, Kingston, Ontario, Canada and have been characterized elsewhere. Bacterial cells were grown in cation-adjusted Mueller Hinton (CAMH) media, brain heart infusion broth (BHI), or tryptic soy agar (TSA) plates were all obtained from Becton, Dickinson, and Company (BD; Franklin Lakes, NJ, USA). […] Azithromycin was purchased from Tokyo Chemical Industry (Portland, OR, USA). […] Ethidium bromide (EtBr) and glucose were purchased from VWR (Radnor, PA, USA). MC-04,124 and TXA01182 were synthesized at TAXIS Pharmaceuticals. Carbonyl cyanide 3-chlorophenylhydrazone (CCCP) was purchased from Enzo Life Sciences (Farmingdale, NY, USA). DiOC2 (3) and propidium iodide were obtained from Thermo Fisher Scientific (Waltham, MA, USA).
as §2

[3] = system: 209 P. aeruginosa clinical isolates from three US hospitals; assay: Susceptibility study, Micromyx panel
Source text: First, 209 clinical isolates of P. aeruginosa were collected, unbiased of susceptibility, from three US hospitals by Micromyx (now part of Microbiologics; Kalamazoo, MI, USA). IHMA (Monthey, Switzerland) collected 300 P. aeruginosa clinical isolates, also unbiased of susceptibility, from the following 63 countries: Argentina, Australia, Belgium, Brazil, Canada, Chile, Colombia, Costa Rica, Croatia, Czech Republic, Denmark, Dominican Republic, Ecuador, France, Georgia, Germany, Greece, Guatemala, Hong Kong, Hungary, India, Ireland, Israel, Italy, Japan, Jordan, Kazakhstan, Kenya, South Korea, Kuwait, Latvia, Lebanon, Lithuania, Malaysia, Mexico, Morocco, Netherlands, New Zealand, Nigeria, Panama, Philippines, Poland, Portugal, Puerto Rico, Qatar, Romania, Russia, Saudi Arabia, Serbia, Slovenia, South Africa, Spain, Sweden, Switzerland, Taiwan, Thailand, Tunisia, Turkey, Ukraine, United Kingdom, United States, Venezuela, and Vietnam. Isolates came from the following types of infection: genitourinary (urine), gastrointestinal (stomach), gastrointestinal (pancreas), […] (wound), respiratory (sputum), […] (blood), respiratory (bronchoalveolar lavage), […] (burn), respiratory (endotracheal aspirate), bodily fluids (abscess/pus), […] (impetiginous lesions), gastrointestinal (abscess) and respiratory (bronchial brushing). CF patients were not excluded.
as §2

P. aeruginosa ATCC 27853 = system: P. aeruginosa ATCC 27853
Description: as §1
The frequency of resistance studies was carried out as described previously.

[4] = TXA09155 fixed […], 209 isolates

Cl.NC[C@@H]1CN[C@H](CNC(=O)c2cc3ccc(-c4ccc(F)cc4)cc3[nH]2)C1 [TXA09155, N-(((2S,4R)-4-(aminomethyl)pyrrolidine-2-yl)methyl)-6-(4-fluorophenyl)-1H-indole-2-carboxamide hydrochloride salt]
MIC ([1]; strain EPIR1S (phoQ-L175R)): 200 µg/mL | MIC ([1]; strain EPIR9S (phoQ-L175R)): 100 µg/mL | MIC ([1]; strain EPIR20L (phoQ-H248D)): 200 µg/mL | levofloxacin MIC50 in presence of EPI ([2]; EPI (label) fixed […], 34 MDR isolates, levofloxacin alone 32): 2 µg/mL | levofloxacin MIC90 in presence of EPI ([2]; EPI (label) fixed […], 34 MDR isolates, levofloxacin alone 64): 8 µg/mL | Levofloxacin MIC fold difference ([2]; strain AR-0229): 32 | Levofloxacin MIC ([2]; strain AR-0229): 2 µg/mL | Levofloxacin MIC fold difference ([2]; strain AR-0230): 8 | Levofloxacin MIC ([2]; strain AR-0230): 8 µg/mL | Levofloxacin MIC fold difference ([2]; strain AR-0231): 4 | Levofloxacin MIC ([2]; strain AR-0231): 16 µg/mL | Levofloxacin MIC fold difference ([2]; strain AR-0232): 16 | Levofloxacin MIC ([2]; strain AR-0232): 0.5 µg/mL | Levofloxacin MIC fold difference ([2]; strain AR-0233): 32 | Levofloxacin MIC ([2]; strain AR-0233): 0.125 µg/mL | Levofloxacin MIC fold difference ([2]; strain AR-0234): 16 | Levofloxacin MIC ([2]; strain AR-0234): 0.5 µg/mL | Levofloxacin MIC fold difference ([2]; strain AR-0236): 8 | Levofloxacin MIC ([2]; strain AR-0236): 4 µg/mL | Levofloxacin MIC fold difference ([2]; strain AR-0239): 16 | Levofloxacin MIC ([2]; strain AR-0239): 4 µg/mL | Levofloxacin MIC fold difference ([2]; strain AR-0240): 16 | Levofloxacin MIC ([2]; strain AR-0240): 8 µg/mL | Levofloxacin MIC fold difference ([2]; strain AR-0241): 8 | Levofloxacin MIC ([2]; strain AR-0241): 8 µg/mL | Levofloxacin MIC fold difference ([2]; strain AR-0242): 16 | Levofloxacin MIC ([2]; strain AR-0242): 1 µg/mL | Levofloxacin MIC fold difference ([2]; strain AR-0244): 64 | Levofloxacin MIC ([2]; strain AR-0244): 2 µg/mL | Levofloxacin MIC fold difference ([2]; strain AR-0245): 8 | Levofloxacin MIC ([2]; strain AR-0245): 16 µg/mL | Levofloxacin MIC fold difference ([2]; strain AR-0246): 8 | Levofloxacin MIC ([2]; strain AR-0246): 8 µg/mL | Levofloxacin MIC fold difference ([2]; strain AR-0247): 256 | Levofloxacin MIC ([2]; strain AR-0247): ≤ 0.008 µg/mL | Levofloxacin MIC fold difference ([2]; strain AR-0248): 32 | Levofloxacin MIC ([2]; strain AR-0248): 0.5 µg/mL | Levofloxacin MIC fold difference ([2]; strain AR-0249): 32 | Levofloxacin MIC ([2]; strain AR-0249): 2 µg/mL | Levofloxacin MIC fold difference ([2]; strain AR-0250): 8 | Levofloxacin MIC ([2]; strain AR-0250): 8 µg/mL | Levofloxacin MIC fold difference ([2]; strain AR-0252): 64 | Levofloxacin MIC ([2]; strain AR-0252): 0.5 µg/mL | Levofloxacin MIC fold difference ([2]; strain AR-0253): 64 | Levofloxacin MIC ([2]; strain AR-0253): 0.031 µg/mL | Levofloxacin MIC fold difference ([2]; strain AR-0256): 16 | Levofloxacin MIC ([2]; strain AR-0256): 0.031 µg/mL | Levofloxacin MIC fold difference ([2]; strain AR-0258): 8 | Levofloxacin MIC ([2]; strain AR-0258): 0.062 µg/mL | Levofloxacin MIC fold difference ([2]; strain AR-0259): 8 | Levofloxacin MIC ([2]; strain AR-0259): 0.062 µg/mL | Levofloxacin MIC fold difference ([2]; strain AR-0260): 8 | Levofloxacin MIC ([2]; strain AR-0260): 8 µg/mL | Levofloxacin MIC fold difference ([2]; strain AR-0261): 32 | Levofloxacin MIC ([2]; strain AR-0261): 0.25 µg/mL | Levofloxacin MIC fold difference ([2]; strain AR-0262): 64 | Levofloxacin MIC ([2]; strain AR-0262): 0.063 µg/mL | Levofloxacin MIC fold difference ([2]; strain AR-0264): 32 | Levofloxacin MIC ([2]; strain AR-0264): 1 µg/mL | Levofloxacin MIC fold difference ([2]; strain AR-0265): 16 | Levofloxacin MIC ([2]; strain AR-0265): 4 µg/mL | Levofloxacin MIC fold difference ([2]; strain AR-0266): 16 | Levofloxacin MIC ([2]; strain AR-0266): 2 µg/mL | Levofloxacin MIC fold difference ([2]; strain AR-0267): 64 | Levofloxacin MIC ([2]; strain AR-0267): 0.5 µg/mL | Levofloxacin MIC fold difference ([2]; strain AR-0269): 16 | Levofloxacin MIC ([2]; strain AR-0269): 2 µg/mL | Levofloxacin MIC fold difference ([2]; strain AR-0270): 64 | Levofloxacin MIC ([2]; strain AR-0270): 0.5 µg/mL | Levofloxacin MIC fold difference ([2]; strain AR-0271): 8 | Levofloxacin MIC ([2]; strain AR-0271): 4 µg/mL | Levofloxacin MIC fold difference ([2]; strain AR-0272): 8 | Levofloxacin MIC ([2]; strain AR-0272): 2 µg/mL | levofloxacin MIC50 in presence of TXA09155 [3, 4]: 0.12 µg/mL | levofloxacin MIC90 in presence of TXA09155 [3, 4]: 2 µg/mL | Cumulative Susceptibility % Strains at 1 ([3]; concentration 1 µg/ml, n: 209): 2% | Cumulative Susceptibility % Strains at 2 ([3]; concentration 2 µg/ml, n: 209): 2% | Cumulative Susceptibility % Strains at 4 ([3]; concentration 4 µg/ml, n: 209): 3% | Cumulative Susceptibility % Strains at 8 ([3]; concentration 8 µg/ml, n: 209): 6% | Cumulative Susceptibility % Strains at 16 ([3]; concentration 16 µg/ml, n: 209): 9% | Cumulative Susceptibility % Strains at 32 ([3]; concentration 32 µg/ml, n: 209): 36% | Cumulative Susceptibility % Strains at >32 ([3]; concentration >32 µg/ml, n: 209): 100% | fold reduction of the FoR to levofloxacin (P. aeruginosa ATCC 27853): more than 149 fold | FoR, resistance to TXA09155 alone (1×-MIC) (P. aeruginosa ATCC 27853; 50 μg/mL): 1.9 × 10^−3 | FoR, resistance to TXA09155 alone (4×-MIC) (P. aeruginosa ATCC 27853; 200 μg/mL): 1.40 × 10^−6
